# Laboratory results published in ChEMBL document CHEMBL6074671, “Discovery of Pyridine-2-Carboxamides Derivatives as Potent and Selective HPK1 Inhibitors for the Treatment of Cancer” (J Med Chem, 2024).
# pIC50: −log10 of the molar value.
# Experiments:
# in vivo [1] = details: Sprague-Dawley, rat, plasma, iv, 1 mg/kg
# Description: Clearance in Sprague-Dawley rat plasma at 1 mg/kg, iv
# [2] = Solubility in compound in FassIF at pH 6.5 incubated for 24 hrs by HPLC-UV analysis; format: physicochemical
# [3] = Oral bioavailability n Sprague-Dawley rat at 10 mg/kg; format: ADME, organism-based; details: in vivo
# [4] = molecular target: Mitogen-activated protein kinase kinase kinase kinase 5 (Homo sapiens, UniProt Q9Y4K4); test: Inhibition of human GST-tagged full length recombinant MAP4K5 expressed in insect cells; design: species or system Insect cell
# Chain of Mitogen-activated protein kinase kinase kinase kinase 5 (Q9Y4K4 whole entry): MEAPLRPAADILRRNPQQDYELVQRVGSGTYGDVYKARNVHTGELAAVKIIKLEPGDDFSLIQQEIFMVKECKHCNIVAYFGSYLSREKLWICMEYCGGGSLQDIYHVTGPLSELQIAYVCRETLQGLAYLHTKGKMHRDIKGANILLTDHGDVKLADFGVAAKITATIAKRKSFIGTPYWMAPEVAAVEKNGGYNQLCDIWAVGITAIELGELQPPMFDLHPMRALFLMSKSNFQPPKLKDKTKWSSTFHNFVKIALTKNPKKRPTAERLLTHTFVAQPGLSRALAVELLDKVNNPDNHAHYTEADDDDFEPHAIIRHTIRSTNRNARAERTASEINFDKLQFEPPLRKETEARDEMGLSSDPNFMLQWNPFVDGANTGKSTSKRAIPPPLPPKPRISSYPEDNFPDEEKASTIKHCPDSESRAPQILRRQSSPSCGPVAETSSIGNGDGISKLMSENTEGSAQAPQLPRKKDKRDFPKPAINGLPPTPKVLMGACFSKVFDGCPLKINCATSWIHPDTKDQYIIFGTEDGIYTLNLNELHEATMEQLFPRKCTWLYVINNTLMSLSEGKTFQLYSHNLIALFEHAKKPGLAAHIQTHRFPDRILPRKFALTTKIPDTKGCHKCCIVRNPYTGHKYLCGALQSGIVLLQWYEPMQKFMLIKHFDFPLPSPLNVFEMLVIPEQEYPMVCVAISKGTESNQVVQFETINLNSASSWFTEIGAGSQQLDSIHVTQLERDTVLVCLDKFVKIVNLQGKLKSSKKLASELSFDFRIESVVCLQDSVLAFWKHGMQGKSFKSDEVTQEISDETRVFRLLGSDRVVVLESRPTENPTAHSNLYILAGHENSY
# [5] = molecular target: Tyrosine-protein kinase Lck (Homo sapiens, UniProt P06239); test: Inhibition of LCK (unknown origin)
# Chain of Tyrosine-protein kinase Lck (P06239 whole entry): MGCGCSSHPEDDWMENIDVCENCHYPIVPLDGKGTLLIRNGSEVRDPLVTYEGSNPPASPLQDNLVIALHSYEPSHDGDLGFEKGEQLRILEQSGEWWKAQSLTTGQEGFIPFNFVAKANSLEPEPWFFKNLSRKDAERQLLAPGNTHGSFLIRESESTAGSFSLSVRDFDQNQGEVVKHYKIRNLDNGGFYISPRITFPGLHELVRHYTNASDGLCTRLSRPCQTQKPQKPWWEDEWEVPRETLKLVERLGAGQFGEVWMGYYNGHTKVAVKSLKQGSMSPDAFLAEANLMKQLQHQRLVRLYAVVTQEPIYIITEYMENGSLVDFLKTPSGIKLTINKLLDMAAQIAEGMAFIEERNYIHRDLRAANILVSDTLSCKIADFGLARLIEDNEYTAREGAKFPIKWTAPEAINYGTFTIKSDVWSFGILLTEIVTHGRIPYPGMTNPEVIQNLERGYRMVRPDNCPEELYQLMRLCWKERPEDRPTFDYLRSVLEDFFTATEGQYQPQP
# Cytochrome P450 2C19 = Cytochrome P450 2C19 (Homo sapiens, UniProt P33261); test: Inhibition of CYP2C19 in human liver microsomes using S-mephenytoin 4-hydroxylation as substrate incubated for 10 mins in presence of NADPH by LC-MS/MS analysis; format: ADME, Microsome
# Chain of Cytochrome P450 2C19 (P33261 whole entry): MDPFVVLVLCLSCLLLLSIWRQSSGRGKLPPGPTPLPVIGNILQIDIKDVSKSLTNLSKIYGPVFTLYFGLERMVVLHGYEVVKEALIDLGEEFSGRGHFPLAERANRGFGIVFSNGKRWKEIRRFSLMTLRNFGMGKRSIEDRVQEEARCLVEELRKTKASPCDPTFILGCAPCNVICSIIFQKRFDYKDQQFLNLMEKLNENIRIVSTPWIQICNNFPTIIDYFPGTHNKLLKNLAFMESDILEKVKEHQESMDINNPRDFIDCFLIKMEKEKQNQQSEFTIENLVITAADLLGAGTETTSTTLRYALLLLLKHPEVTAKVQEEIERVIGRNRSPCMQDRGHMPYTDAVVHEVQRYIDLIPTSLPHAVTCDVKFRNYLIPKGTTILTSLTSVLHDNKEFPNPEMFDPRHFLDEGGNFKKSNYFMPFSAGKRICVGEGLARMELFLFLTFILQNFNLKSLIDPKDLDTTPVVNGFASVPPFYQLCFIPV
# [6] = Toxicity in C57BL/6 mouse implanted with mouse MC38 cells assessed as effect on body weight loss at low dose, po BID measured after 12 days; format: organism-based; details: in vivo, 288 h, time 12 day
# MC-38 [7] = test: Synergistic antitumor activity against mouse MC38 cells implanted in C57BL/6 mouse model assessed as tumor growth inhibition at high dose, po BID measured after 12 days in presence of anti-PD-1 relative to control; format: functional; details: time 12 day
# Cytochrome P450 2D6 = Cytochrome P450 2D6 (Homo sapiens, UniProt P10635); test: Inhibition of CYP2D6 in human liver microsomes using O-demethylation as substrate incubated for 10 mins in presence of NADPH by LC-MS/MS analysis; format: ADME, Microsome
# Chain of Cytochrome P450 2D6 (P10635 whole entry): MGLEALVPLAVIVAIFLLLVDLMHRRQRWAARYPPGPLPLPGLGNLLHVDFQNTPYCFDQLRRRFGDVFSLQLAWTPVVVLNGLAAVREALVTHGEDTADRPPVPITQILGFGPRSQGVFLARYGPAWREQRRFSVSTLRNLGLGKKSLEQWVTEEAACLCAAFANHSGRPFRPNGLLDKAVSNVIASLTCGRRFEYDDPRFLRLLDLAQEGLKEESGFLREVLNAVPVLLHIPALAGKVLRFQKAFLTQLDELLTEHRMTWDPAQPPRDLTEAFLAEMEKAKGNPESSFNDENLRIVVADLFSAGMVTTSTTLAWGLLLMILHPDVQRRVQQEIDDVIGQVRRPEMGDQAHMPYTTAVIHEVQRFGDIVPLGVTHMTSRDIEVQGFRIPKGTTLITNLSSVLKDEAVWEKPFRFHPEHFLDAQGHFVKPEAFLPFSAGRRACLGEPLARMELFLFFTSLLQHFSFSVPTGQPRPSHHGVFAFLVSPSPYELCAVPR
# [8] = molecular target: Tyrosine-protein kinase JAK1 (Homo sapiens, UniProt P23458); test: Inhibition of JAK1 (unknown origin)
# [9] = Genotoxicity in Salmonella typhimurium TA1535 incubated for 48 to 72 hrs in presence of S9 fraction by AMES test; format: toxicity, subcellular; details: salmonella enterica subsp. enterica serovar typhimurium, time 48-72 hrs
# [10] = molecular target: Serine/threonine-protein kinase PAK 3 (Homo sapiens, UniProt O75914); test: Inhibition of PAK3 (unknown origin)
# Chain of Serine/threonine-protein kinase PAK 3 (O75914 whole entry): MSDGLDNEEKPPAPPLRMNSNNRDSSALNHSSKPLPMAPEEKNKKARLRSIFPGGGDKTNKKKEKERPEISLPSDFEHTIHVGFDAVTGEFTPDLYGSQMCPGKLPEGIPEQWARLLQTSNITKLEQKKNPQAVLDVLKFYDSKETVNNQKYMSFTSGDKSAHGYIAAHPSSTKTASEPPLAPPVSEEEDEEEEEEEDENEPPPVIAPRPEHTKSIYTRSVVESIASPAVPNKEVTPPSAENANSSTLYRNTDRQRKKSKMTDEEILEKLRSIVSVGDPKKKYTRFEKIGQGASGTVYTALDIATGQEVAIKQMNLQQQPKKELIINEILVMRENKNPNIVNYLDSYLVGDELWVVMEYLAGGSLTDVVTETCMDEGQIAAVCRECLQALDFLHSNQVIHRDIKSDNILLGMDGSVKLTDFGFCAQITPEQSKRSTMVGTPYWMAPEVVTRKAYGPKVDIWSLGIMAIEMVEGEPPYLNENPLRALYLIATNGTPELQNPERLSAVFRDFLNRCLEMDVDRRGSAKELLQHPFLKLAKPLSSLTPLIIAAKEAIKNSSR
# MC-38 [11] = test: Synergistic antitumor activity against mouse MC38 cells implanted in C57BL/6 mouse model assessed as CDI value at high dose, po BID measured after 12 days in presence of anti-PD-1; format: functional; details: time 12 day
# in vivo [12] = details: Beagle, dog, po, 2 mg/kg
# Description: Half life in Beagle dog at 2 mg/kg, po
# [13] = molecular target: Serine/threonine-protein kinase PLK4 (Homo sapiens, UniProt O00444); test: Inhibition of PLK4 (unknown origin)
# [14] = Kinetic solubility of the compound in PBS buffer at pH 7.4 measured after 24 hrs by HPL-UV analysis; format: physicochemical; details: read-out: Kinetic_solubility
# [15] = Plasma protein binding in dog assessed as unbound fraction at 2 uM incubated for 4 hrs by LC-MS/MS analysis; format: ADME, cell-free, Canis lupus familiaris
# [16] = dog, in vivo, po, 2 mg/kg
# [17] = molecular target: Mitogen-activated protein kinase kinase kinase kinase 4 (Homo sapiens, UniProt O95819); test: Inhibition of catalytic domain N-terminal GST tagged human MAP4K4 (1 to 328 residues) expressed in insect Sf21 cells
# in vivo [18] = details: cynomolgus monkey, iv, 1 mg/kg
# Description: Volume of distribution in Cynomolgus monkey at 1 mg/kg, iv
# [19] = molecular target: T1, Mitogen-activated protein kinase kinase kinase kinase 3 (Homo sapiens, UniProt Q8IVH8); test: Inhibition of human recombinant GST-tagged MAP4K3 ([…]) extracted from Baculovirus expression system
# T1 sequence (Q8IVH8 whole entry): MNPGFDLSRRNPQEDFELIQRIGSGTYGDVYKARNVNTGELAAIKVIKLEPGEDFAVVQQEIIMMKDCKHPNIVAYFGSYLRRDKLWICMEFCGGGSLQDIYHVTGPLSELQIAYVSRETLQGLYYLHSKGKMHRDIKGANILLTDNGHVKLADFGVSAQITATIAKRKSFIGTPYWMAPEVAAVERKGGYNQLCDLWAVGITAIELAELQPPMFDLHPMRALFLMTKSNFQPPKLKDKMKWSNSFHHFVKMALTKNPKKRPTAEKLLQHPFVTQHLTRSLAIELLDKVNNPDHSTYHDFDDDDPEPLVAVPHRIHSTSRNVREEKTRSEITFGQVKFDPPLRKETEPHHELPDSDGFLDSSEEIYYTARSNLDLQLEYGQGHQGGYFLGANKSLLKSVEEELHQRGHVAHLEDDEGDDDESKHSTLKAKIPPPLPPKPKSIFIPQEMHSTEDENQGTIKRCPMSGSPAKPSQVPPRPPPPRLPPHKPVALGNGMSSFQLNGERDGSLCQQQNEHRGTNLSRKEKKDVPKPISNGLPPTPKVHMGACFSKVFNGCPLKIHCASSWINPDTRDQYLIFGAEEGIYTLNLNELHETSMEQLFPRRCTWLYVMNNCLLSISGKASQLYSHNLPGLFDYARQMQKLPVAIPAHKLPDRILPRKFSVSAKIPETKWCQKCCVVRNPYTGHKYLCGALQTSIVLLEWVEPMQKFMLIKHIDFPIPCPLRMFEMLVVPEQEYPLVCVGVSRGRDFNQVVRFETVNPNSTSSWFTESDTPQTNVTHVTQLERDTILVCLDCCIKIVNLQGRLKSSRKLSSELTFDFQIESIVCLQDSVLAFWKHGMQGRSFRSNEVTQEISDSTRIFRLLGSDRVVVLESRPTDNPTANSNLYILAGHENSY
# [20] = molecular target: T1, Mitogen-activated protein kinase kinase kinase kinase 3; test: Inhibition of GLK (unknown origin)
# [21] = Toxicity in Balb/c mouse assessed as effect on body weight loss at 1.5 to 12 mg/kg, po BID measured after 15 days; format: organism-based; details: in vivo, 360 h, dose 1.5-12 mg/kg, time 15 day
# [22] = molecular target: Tyrosine-protein kinase Fyn (Homo sapiens, UniProt P06241); test: Inhibition of FYN (unknown origin)
# [23] = Plasma protein binding in rat assessed as unbound fraction at 2 uM incubated for 4 hrs by LC-MS/MS analysis; format: ADME, cell-free
# in vivo [24] = details: cynomolgus monkey, po, 2 mg/kg
# Description: Half life in Cynomolgus monkey at 2 mg/kg, po
# [25] = Permeability of the compound in human Caco-2 cells measured after 90 mins by UPLC-MS/MS analysis; format: ADME, cell-based; details: read-out: permeability
# [26] = molecular target: Tyrosine-protein kinase ITK/TSK (Homo sapiens, UniProt Q08881); test: Inhibition of ITK (unknown origin)
# Chain of Tyrosine-protein kinase ITK/TSK (Q08881 whole entry): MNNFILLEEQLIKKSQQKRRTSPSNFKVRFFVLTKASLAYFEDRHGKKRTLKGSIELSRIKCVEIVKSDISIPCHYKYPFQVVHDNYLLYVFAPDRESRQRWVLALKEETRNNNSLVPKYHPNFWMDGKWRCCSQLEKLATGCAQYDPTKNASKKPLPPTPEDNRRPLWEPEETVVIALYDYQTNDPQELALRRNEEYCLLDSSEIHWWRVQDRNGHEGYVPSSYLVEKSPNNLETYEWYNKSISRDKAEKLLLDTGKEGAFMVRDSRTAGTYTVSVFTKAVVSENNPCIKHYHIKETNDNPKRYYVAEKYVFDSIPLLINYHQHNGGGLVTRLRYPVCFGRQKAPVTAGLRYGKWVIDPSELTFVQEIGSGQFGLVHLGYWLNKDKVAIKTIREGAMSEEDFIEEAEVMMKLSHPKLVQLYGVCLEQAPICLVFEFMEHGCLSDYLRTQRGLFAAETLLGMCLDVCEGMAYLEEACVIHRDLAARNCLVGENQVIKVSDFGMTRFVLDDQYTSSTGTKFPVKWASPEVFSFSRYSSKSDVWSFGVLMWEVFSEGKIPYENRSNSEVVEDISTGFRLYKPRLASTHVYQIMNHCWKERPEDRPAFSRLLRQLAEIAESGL
# [27] = molecular target: Proto-oncogene tyrosine-protein kinase receptor Ret (Homo sapiens, UniProt P07949); test: Inhibition of RET (unknown origin)
# Chain of Proto-oncogene tyrosine-protein kinase receptor Ret (P07949 whole entry): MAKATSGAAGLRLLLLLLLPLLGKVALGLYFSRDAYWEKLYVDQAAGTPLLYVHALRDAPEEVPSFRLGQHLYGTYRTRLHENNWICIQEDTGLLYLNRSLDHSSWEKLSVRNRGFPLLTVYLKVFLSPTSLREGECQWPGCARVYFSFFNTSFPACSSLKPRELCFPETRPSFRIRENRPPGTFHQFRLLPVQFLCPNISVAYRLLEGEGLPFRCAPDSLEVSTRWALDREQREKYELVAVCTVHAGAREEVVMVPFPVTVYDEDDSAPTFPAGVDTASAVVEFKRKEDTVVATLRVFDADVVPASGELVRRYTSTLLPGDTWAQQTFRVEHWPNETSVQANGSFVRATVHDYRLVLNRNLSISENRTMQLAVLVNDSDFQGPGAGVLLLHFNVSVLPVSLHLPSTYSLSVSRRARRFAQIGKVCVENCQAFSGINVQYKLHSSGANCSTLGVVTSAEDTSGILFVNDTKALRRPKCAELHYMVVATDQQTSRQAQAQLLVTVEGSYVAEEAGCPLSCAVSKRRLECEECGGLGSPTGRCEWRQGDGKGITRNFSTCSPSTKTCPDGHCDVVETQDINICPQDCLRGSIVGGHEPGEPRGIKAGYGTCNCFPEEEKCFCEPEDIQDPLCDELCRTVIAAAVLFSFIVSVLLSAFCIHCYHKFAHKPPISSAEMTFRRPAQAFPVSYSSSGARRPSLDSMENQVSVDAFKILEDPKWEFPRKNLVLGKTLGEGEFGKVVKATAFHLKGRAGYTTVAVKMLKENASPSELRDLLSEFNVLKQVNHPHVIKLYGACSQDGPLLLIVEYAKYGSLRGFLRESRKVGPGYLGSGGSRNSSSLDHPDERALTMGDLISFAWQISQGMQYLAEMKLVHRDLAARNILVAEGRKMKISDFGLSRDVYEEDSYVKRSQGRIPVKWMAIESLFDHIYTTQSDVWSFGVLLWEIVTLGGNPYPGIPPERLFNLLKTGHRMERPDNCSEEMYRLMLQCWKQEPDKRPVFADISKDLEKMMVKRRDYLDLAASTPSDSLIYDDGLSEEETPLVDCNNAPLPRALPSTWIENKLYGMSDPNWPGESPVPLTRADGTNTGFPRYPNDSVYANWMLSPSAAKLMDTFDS
# [28] = Toxicity in C57BL/6 mouse implanted with mouse MC38 cells assessed as increase in survival at low dose, po BID measured after 12 days; format: organism-based; details: in vivo, 288 h, time 12 day
# MC-38 [29] = test: Synergistic antitumor activity against mouse MC38 cells implanted in C57BL/6 mouse model assessed as CDI value at low dose, po BID measured after 12 days in presence of anti-PD-1; format: functional; details: time 12 day
# in vivo [30] = details: cynomolgus monkey, po, 2 mg/kg; remark: listed apart in the source
smiles,measurement,setting,value
COc1cc(Nc2ccc3c(n2)CN(C)C32CCN(C3COC3)CC2)c(C(N)=O)nc1-c1cccc2c1ncn2C,clearance,in vivo [1],9.67 mL/min/kg
same,solubility at 24 h,[2],18.9 µM
same,bioavailability,[3],34.7%
same,pIC50,[4],6.73
same,pIC50,[5],6.28
same,pIC50,Cytochrome P450 2C19,< 4.30
same,Activity,[6],Non-toxic
same,TGI,MC-38 [7],83.3%
same,pIC50,Cytochrome P450 2D6,< 4.30
same,pIC50,[8],< 5.00
same,Activity,[9],Non-toxic
same,pIC50,[10],< 5.00
same,Activity,MC-38 [11],0.57
same,half-life,in vivo [12],7.65 h
same,pIC50,[13],< 5.00
same,solubility kinetic at 24 h,[14],2.14 µM
same,"fraction unbound at 4 h, 2 µM",[15],0.309
same,AUC/dose,[16],563 ng·h/mL
same,pIC50,[17],6.42
same,Vd,in vivo [18],5.07 L/kg
same,pIC50,[19],6.49
same,pIC50,[20],6.49
same,Activity,[21],Non-toxic
same,pIC50,[22],< 5.00
same,"fraction unbound at 4 h, 2 µM",[23],0.058
same,half-life,in vivo [24],8.73 h
same,Papp at […],[25],4.2 ×10⁻⁶ cm/s
same,pIC50,[26],< 5.00
same,pIC50,[27],5.52
same,Activity,[28],Non-toxic
same,Activity,MC-38 [29],0.78
same,bioavailability,in vivo [30],42%
